In ChEMBL document CHEMBL4219189, “Designing novel inhibitors against falcipain-2 of Plasmodium falciparum” (Bioorg Med Chem Lett, 2018):
The source made the active and inactive calls. The rule behind the calls is not given here.

Assays:
[1] = tested on: Plasmodium falciparum; test: Resistance index, ratio of IC50 for chloroquine sensitive Plasmodium falciparum MRC-02 schizont stage infected in human erythrocytes to IC50 for chloroquine resistant Plasmodium falciparum RKL9 schizont stage infected in human erythrocytes
[2] = tested on: Plasmodium falciparum; test: Inhibition of chloroquine resistant Plasmodium falciparum RKL9 schizont stage infected in human erythrocytes assessed as reduction in […] growth after 24 hrs by Giemsa staining based assay; format: cell-based; details: RKL9, 24 h
[3] = tested on: Plasmodium falciparum; test: Inhibition of chloroquine sensitive Plasmodium falciparum MRC-02 schizont stage infected in human erythrocytes assessed as reduction in […] growth after 24 hrs by Giemsa staining based assay; format: cell-based; details: MRC-02, 24 h
[4] = tested on: Plasmodium berghei; test: Antimalarial activity against Plasmodium berghei infected in Swiss albino mouse assessed as suppression of parasitaemia at 20 mg/kg/day, po for 4 consecutive days starting from 4 hrs post infection measured on day 4 post last dose by Giemsa staining based microscopic method relative to control; format: functional
[5] = tested on: Plasmodium berghei; test: Antimalarial activity against Plasmodium berghei infected in Swiss albino mouse assessed as increase in mouse survival at 20 mg/kg/day, po for 4 consecutive days starting from 4 hrs post infection measured on day 28 by Giemsa staining based microscopic method; format: functional, organism-based
[6] = tested on: Plasmodium berghei; test: Antimalarial activity against Plasmodium berghei infected in Swiss albino mouse assessed as increase in mouse survival at 25 mg/kg/day, po for 4 consecutive days starting from 4 hrs post infection measured on day 28 by Giemsa staining based microscopic method; format: functional, organism-based
[7] = tested on: Plasmodium berghei; test: Antimalarial activity against Plasmodium berghei infected in Swiss albino mouse assessed as suppression of parasitaemia at 25 mg/kg/day, po for 4 consecutive days starting from 4 hrs post infection measured on day 4 post last dose by Giemsa staining based microscopic method relative to control; format: functional

Structure (SMILES)	Ratio IC50 [1]	IC50 [2] [µM]	IC50 [3] [µM]	Activity [4] [%]	Activity [5]	Activity [6]	Activity [7] [%]
CCN(CC)c1ccc2cc(C3=NNC(c4ccc([N+](=O)[O-])cc4)C3)c(=O)oc2c1 (centres undefined)	0.64	30.4	19.7	–	–	–	–
CCN(CC)c1ccc2cc(C3=NNC(c4ccc(F)cc4)C3)c(=O)oc2c1 (centres undefined)	0.76	44.5	34.2	–	–	–	–
CCN(CC)CCCC(C)Nc1ccnc2cc(Cl)ccc12 (centres undefined) [CHLOROQUINE]	–	–	–	100	Active	–	–
CCN(CC)c1ccc2cc(C3=NNC(c4ccc(Cl)cc4)C3)c(=O)oc2c1 (centres undefined)	0.68	27.1	18.6	–	–	–	–
CCN(CC)c1ccc2cc(C3=NN(C(=O)c4ccccc4)C(c4ccc(Cl)cc4)C3)c(=O)oc2c1 (centres undefined)	–	> 100	> 100	–	–	–	–
CCN(CC)c1ccc2cc(C3=NN(c4ccccc4)C(c4ccc(F)cc4)C3)c(=O)oc2c1 (centres undefined)	0.79	33.8	26.9	–	–	–	–
CCN(CC)c1ccc2cc(C3=NN(c4ccccc4)C(c4ccc(Cl)cc4)C3)c(=O)oc2c1 (centres undefined)	1.1	9.1	10.4	–	–	inactive	34
CCN(CC)c1ccc2cc(C3=NNC(c4ccccc4)C3)c(=O)oc2c1 (centres undefined)	–	> 100	> 100	–	–	–	–
CCN(CC)c1ccc2cc(C3=NN(c4ccccc4)C(c4ccc(O)cc4)C3)c(=O)oc2c1 (centres undefined)	0.69	25.3	17.5	–	–	–	–
CCN(CC)c1ccc2cc(C3=NN(c4ccccc4)C(c4ccc([N+](=O)[O-])cc4)C3)c(=O)oc2c1 (centres undefined)	0.5	41.6	20.9	–	–	–	–
CCN(CC)c1ccc2cc(C3=NN(C(=O)c4ccccc4)C(c4ccc(F)cc4)C3)c(=O)oc2c1 (centres undefined)	2.2	1.9	4.2	–	–	Active	100
CCN(CC)c1ccc2cc(C3=NN(C(=O)c4ccccc4)C(c4ccccc4)C3)c(=O)oc2c1 (centres undefined)	–	> 100	> 100	–	–	–	–
CCN(CC)c1ccc2cc(C3=NN(C(=O)c4ccccc4)C(c4ccc(O)cc4)C3)c(=O)oc2c1 (centres undefined)	0.53	26.7	14.3	–	–	–	–
CCN(CC)c1ccc2cc(C3=NNC(c4ccc(O)cc4)C3)c(=O)oc2c1 (centres undefined)	0.89	29.9	26.7	–	–	–	–
CCN(CC)c1ccc2cc(C3=NN(c4ccccc4)C(c4ccccc4)C3)c(=O)oc2c1 (centres undefined)	–	> 100	> 100	–	–	–	–
CCN(CC)c1ccc2cc(C3=NN(C(=O)c4ccccc4)C(c4ccc([N+](=O)[O-])cc4)C3)c(=O)oc2c1 (centres undefined)	1.6	2.1	3.3	–	–	inactive	62
